EC50 data for 44 molecules are collected here from BindingDB's records for doi:10.7270/Q2TX3CTT (Broad Institute, 2010).

pEC50: −log10 of the molar value.

The target in the assay is Glycogen synthase kinase-3 beta (Homo sapiens, UniProt P49841). As to the kind of experiment: concentration-response blocking of human GSK3B – biochemical, luminescence, cell-free homogeneous, retest, dose response (AID 434954).
Glycogen synthase kinase-3 beta, sequence (P49841 whole entry): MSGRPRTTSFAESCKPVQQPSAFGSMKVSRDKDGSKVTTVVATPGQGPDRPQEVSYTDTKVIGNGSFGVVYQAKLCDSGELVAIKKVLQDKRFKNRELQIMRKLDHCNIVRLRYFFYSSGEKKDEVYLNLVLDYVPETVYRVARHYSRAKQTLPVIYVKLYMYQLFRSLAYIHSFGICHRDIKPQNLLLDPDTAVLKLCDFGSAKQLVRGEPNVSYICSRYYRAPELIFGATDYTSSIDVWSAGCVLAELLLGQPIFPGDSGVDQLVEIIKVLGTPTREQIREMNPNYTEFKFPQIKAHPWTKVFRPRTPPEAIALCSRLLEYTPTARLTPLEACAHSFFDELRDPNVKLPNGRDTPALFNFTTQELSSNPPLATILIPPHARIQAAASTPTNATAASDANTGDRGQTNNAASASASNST
`CC(C)=CCc1c(O)cc2c(c1O)C(=O)CC(c1ccc(O)cc1)O2` (centres undefined) [2-(4-hydroxyphenyl)-6-(3-methylbut-2-enyl)-5,7-bis(oxidanyl)-2,3-dihydrochromen-4-one]: the pEC50 was < 3.52.

For the molecule `CN1CCc2c(sc3c2c(=O)n(-c2ccccc2)c2nnc(SCc4ccc(Cl)cc4)n32)C1` [SMR000045323], the pEC50 was < 3.52.

For `Cc1ccc(C(=O)Nc2ccc(S(=O)(=O)NCc3ccco3)cc2)cc1` [SMR000123393], the pEC50 was < 3.52.

Consider `COC(=O)C(C(=O)OC)c1ccc(NC(=O)c2cccc(Cl)c2)cc1` [dimethyl 2-{4-[(3-chlorobenzoyl)amino]phenyl}malonate], for which the pEC50 was < 3.52.

`CN(C)c1ccc(/N=N/c2ccc(S(N)(=O)=O)cc2)cc1`: the negative logarithm of the EC50 (pEC50) is < 3.52.

For the molecule `CN1CCN(c2ccc([N+](=O)[O-])cc2Cl)CC1` [SMR000283168], the pEC50 is < 3.52.

Turning to `CCCCc1cc(=O)oc2cc(C)cc(OCC(=O)O)c12` [2-(4-butyl-7-methyl-2-oxochromen-5-yl)oxyacetic acid], the negative-log EC50 (pEC50) was < 3.52.

Take `CC(C)Cn1nc(NC(=O)c2cccs2)c2cc3ccccc3nc21` [N-[1-(2-methylpropyl)-3-pyrazolo[3,4-b]quinolinyl]-2-thiophenecarboxamide]: the pEC50 is 4.67.

Turning to `Fc1ccccc1Nc1nc(-c2ccncc2)nc2ccccc12` [N-(2-fluorophenyl)-2-pyridin-4-yl-quinazolin-4-amine], the pEC50 is < 3.52.

`COc1cc(C(=O)N2CCN(c3ccccn3)CC2)cc(OC)c1OC` [SMR000518691]: the negative-log EC50 (pEC50) was 4.34.

The molecule `CC(=O)Nc1cc(-c2ccc(Cl)cc2)n[nH]1` [N-[5-(4-chlorophenyl)-1H-pyrazol-3-yl]acetamide] gave a pEC50 of 4.62. This pEC50 lies 0.28 log units higher than the previous one.

As for `Cc1nnc2n(-c3ccccc3)c(=O)c3c4c(sc3n12)COC(C)(C)C4` [SMR000038952], the negative logarithm of the EC50 (pEC50) was < 3.52.

On to `COc1cccc(/C=C2\Sc3ccc(C(=O)NCC4CCCO4)cc3N(C)C2=O)c1` (centres undefined) [SMR000622267], for which the pEC50 is < 3.52.

As to `CC(C)[C@H](CO)Nc1nc(NCc2ccc(S(N)(=O)=O)cc2)c2ncn(C(C)C)c2n1` [4-[[[2-[[(2R)-1-hydroxy-3-methylbutan-2-yl]amino]-9-propan-2-yl-6-purinyl]amino]methyl]benzenesulfonamide], the negative logarithm of the EC50 (pEC50) was 4.40.

`COc1ccc(-c2nn(-c3ccccc3)cc2C#N)cc1` [3-(4-methoxyphenyl)-1-phenyl-4-pyrazolecarbonitrile]: the negative-log EC50 (pEC50) is < 3.52.

`COC(=O)c1sc(=S)n(Cc2ccccc2)c1C` [methyl 3-benzyl-4-methyl-2-sulfanylidene-1,3-thiazole-5-carboxylate]: the pEC50 was < 3.52.

Take `COc1ccccc1-c1nc(C(=O)NCC2CCCO2)cc2c1[nH]c1ccccc12` (centres undefined) [1-(2-methoxyphenyl)-N-(oxolan-2-ylmethyl)-9H-pyrido[3,4-b]indole-3-carboxamide]: the negative-log EC50 (pEC50) is < 3.52.

As to `COc1nc(N(C)C)nc(N(C#N)CCOC(C)=O)n1` [2-[cyano-[4-(dimethylamino)-6-methoxy-1,3,5-triazin-2-yl]amino]ethyl ethanoate], the pEC50 is < 3.52.

`O=C(NCCCN1CCCCC1)c1ccc2c(c1)NC(=O)C(N1CCCCC1)S2` (centres undefined) [3-oxo-2-piperidin-1-yl-N-(3-piperidin-1-ylpropyl)-4H-1,4-benzothiazine-6-carboxamide]: the negative-log EC50 (pEC50) was < 3.52.

With `O=C(Nc1ccccc1)Nc1cnccn1` [MLS001229949], the pEC50 is < 3.52.

Consider `CC(=O)c1ccc(NC(=O)NNS(=O)(=O)c2ccc([N+](=O)[O-])cc2)cc1`, for which the negative-log EC50 (pEC50) is < 3.52.

Turning to `Nc1ncnc(N(c2ccccc2)C2CCCCC2)c1[N+](=O)[O-]` [N-cyclohexyl-5-nitro-N-phenyl-4,6-pyrimidinediamine], the pEC50 is < 3.52.

`O=C(CN1CCN(Cc2ccccc2Cl)CC1)NN=Cc1ccccn1`: the pEC50 was 4.29.

With `O=C(COc1ccccc1[N+](=O)[O-])NN=Cc1ccc(OC(=O)c2ccco2)cc1` [4-((E)-{2-[2-(2-nitrophenoxy)acetyl]hydrazono}methyl)phenyl 2-furoate], the negative logarithm of the EC50 (pEC50) was 4.83.

As to `COc1ccccc1-c1c(C(F)(F)F)oc2c(CN(C)C)c(O)ccc2c1=O` [MLS001206868], the negative logarithm of the EC50 (pEC50) is < 3.52.

`CCOc1cc(C2c3c(n[nH]c3C)N=C3CC(C)(C)CC(=O)C32)ccc1O` (centres undefined) [MLS000736418]: the pEC50 is 5.48.

Regarding `COC(CSc1nc(N)c2c3c(sc2n1)CN(C)CC3)OC` [SMR000543145], the pEC50 is < 3.52.

On to `COCCN(CC(=O)NCc1ccccc1)C(=O)CCC(=O)Nc1ccccn1` [SMR000004552], for which the pEC50 is < 3.52.

On to `CC(C)(C)C1CCc2onc(C(=O)Nc3ccc4c(c3)OCO4)c2C1` (centres undefined) [N-(1,3-benzodioxol-5-yl)-5-tert-butyl-4,5,6,7-tetrahydro-1,2-benzoxazole-3-carboxamide], for which the pEC50 is < 3.52.

For the molecule `O=c1cccc2oc(-c3ccccc3Cl)cc(O)c1-2` [2-(2-chlorophenyl)-5-hydroxy-1-benzopyran-4-one], the pEC50 is < 3.52.

For `CCc1cc2c(s1)NC(=O)CN=C2c1cccs1`, the negative-log EC50 (pEC50) is 4.49.

As to `C/C=C/c1ccc(OCC(=O)O)c(OC)c1`, the negative logarithm of the EC50 (pEC50) is < 3.52.

Consider `Cc1cc(C)n2nc(C(=O)NN=Cc3ccc(O)cc3)nc2n1` [5,7-dimethyl-N'-[(4-oxocyclohexa-2,5-dien-1-ylidene)methyl]-[1,2,4]triazolo[1,5-a]pyrimidine-2-carbohydrazide], for which the negative-log EC50 (pEC50) was 4.81.

For `Cc1ncc(CN2CCCC(C(=O)Nc3ccc(-c4cccc(F)c4)cc3)C2)cn1` (centres undefined) [N-[4-(3-fluorophenyl)phenyl]-1-[(2-methylpyrimidin-5-yl)methyl]piperidine-3-carboxamide], the negative logarithm of the EC50 (pEC50) was < 3.52.

Take `O=C(O)c1ccccc1NCc1cccnc1` [SMR000473304]: the pEC50 is < 3.52.

As to `Cc1ccc(-c2nn(-c3ccccc3)cc2C=NNS(=O)(=O)c2ccccc2)cc1` [SMR000186234], the negative logarithm of the EC50 (pEC50) is < 3.52.

`Nc1nonc1-n1nnc(C(=O)NN=Cc2ccccc2Cl)c1CN1CCOCC1` showed a negative logarithm of the EC50 (pEC50) of 4.22.

As for `Nc1nc(Nc2cccc(F)c2)nc(NCCO)c1[N+](=O)[O-]` [2-[[6-amino-2-(3-fluoroanilino)-5-nitro-4-pyrimidinyl]amino]ethanol], the negative logarithm of the EC50 (pEC50) was 3.94.

With `Cc1ccc(-c2nn(-c3ccccc3)cc2CO)cc1`, the negative logarithm of the EC50 (pEC50) is < 3.52.

As to `COCCN1C(=O)N[C@@H](c2cccc(C(F)(F)F)c2)[C@H](C(C)=O)[C@H]1C` [(4R,5S,6R)-5-acetyl-1-(2-methoxyethyl)-6-methyl-4-[3-(trifluoromethyl)phenyl]-1,3-diazinan-2-one], the pEC50 is < 3.52.

`Nc1nc(NCc2ccccc2)nc(NCCO)c1[N+](=O)[O-]` [MLS000332798] gave a pEC50 of 4.14.

Consider `CSc1nc(C)cc(-n2ccc(=O)[nH]c2=O)n1` [1-[6-methyl-2-(methylthio)-4-pyrimidinyl]pyrimidine-2,4-dione], for which the pEC50 was 4.59.

`CC(C)OC(=O)c1nnn(-c2nonc2N)c1CSc1ccccn1` [1-(4-amino-1,2,5-oxadiazol-3-yl)-5-[(2-pyridinylthio)methyl]-4-triazolecarboxylic acid propan-2-yl ester] showed a pEC50 of 4.27.

Take `CS(=O)(=O)c1nncn1-c1ccccc1` [MLS000062086]: the pEC50 was < 3.52.
